Here are results for three compounds from patent publication US10488417B2, “Compounds for use as imaging agents” (United Arab Emirates University, priority 2014, dated 2019).

Broadly, the inhibition is the share of the control response that was lost under treatment.

Molecules are shown by their SMILES.

Holding throughout (assay type): biochemical
Test [1] addresses T1, α-synuclein (Homo sapiens, UniProt P37840).
T1 construct: GST (N, cleaved yes); made in house; host or cells: E. coli BL21
As to the kind of experiment: α-synuclein fibrillation, Thioflavin-T (Th-T) binding assay. The settings on record: 25 μM α-synuclein; for inhibition at 50 µM: compound 50 μM. As to the method:
The protein purity was estimated to be >95% using an SDS gel. Ginsenoside, Rb1, stock solutions (10 mM) were prepared in 100% DMSO, and the final amount of DMSO in the sample solutions was 1%. Samples of 25 μM α-synuclein in PBS were aged alone or with Rb1 at various molar ratios (Rb1:α-synuclein molar ratios of 4:1, 2:1 and 1:1). The samples were placed in 1.5 ml sterile polypropylene tubes, drops of mineral oil were added to prevent sample evaporation, and the tubes were then sealed with parafilm and incubated at 37° C. for 5 days with continuous shaking at 800 rpm in a Thermomixer (Eppendorf). Samples were collected at the indicated time points, and a Thioflavin-T assay was performed immediately at each time point, while the rest of the samples were stored at −80° C. until needed for further analyses.
α-Synuclein fibril formation was monitored by Th-T binding assay. Th-T is a fluorescent dye that interacts with fibrils containing a β-sheet structure. A total of 10 μL of each sample was diluted in 40 μL of Th-T in PBS. Fluorescence was then measured in a 384-well, untreated black micro-well plate (Nunc, Denmark) using a microplate reader (Victor X3 2030, Perkin Elmer) with the excitation and emission wavelengths set at 450 and 486 nm, respectively. To allow for background fluorescence, the fluorescence intensity of a blank PBS solution was subtracted from all readings.
α-Synuclein solution at a concentration of 25 μM was incubated at 37° C. with continuous shaking for 5 days, leading to fibril formation, which was monitored by Th-T fluorescence at regular time intervals. α-Synuclein was incubated with each of Gn Rb1, salvianolic acid B and dihydromyricetin at molar ratios of 4:1, 2:1 and 1:1 (molar ratio Compound: α-synuclein) with a constant α-synuclein concentration of 25 μM.

For test [2], the target named is T2, α-synuclein fibrils (Homo sapiens, UniProt P37840).
T2 construct: GST (N, cleaved yes); made in house; host or cells: E. coli BL21
Put plainly: Congo red binding assay of aged α-synuclein. The settings on record: all tested concentrations; fibril control shifts from 490 to 508 nm. As to the method:
CR is a dye with high affinity for amyloid fibrils. Congo red (20 μM) was prepared in PBS (pH 7.4) and filtered through a 0.45 μm filter. Samples of α-synuclein (5 μM), aged alone or with the compounds at different molar ratios, were mixed with Congo red (final concentration 5 μM), and the reaction samples were thoroughly mixed. The UV absorbance spectrum was recorded between 400 and 600 nm in a spectrophotometer (DU-800, Beckman-Coulter) using 10-mm quartz cuvettes (HellmaAnalytics-Germany). Congo red alone was used as blank.

Test [3] has as its target T1, α-synuclein. Put plainly: Transmission electron microscopy of α-synuclein aged with compounds. The settings on record: 25 μM α-synuclein, 5 days, molar ratios 4:1, 2:1, 1:1. As to the method: Electron images were produced from α-synuclein aged alone or in the presence of the compounds. The samples (5 μL) were deposited on Formvar-coated 400-mesh copper grids (Agar Scientific, UK), fixed briefly with 0.5% glutaraldehyde (5 μL), negatively stained with 2% uranyl acetate (Sigma-Aldrich, USA) and examined with a Philips CM-10 TEM electron microscope.

Test [4] concerns the target T1, α-synuclein. Put plainly: α-synuclein oligomerization by immunoblot analysis. The settings on record: compound: α-syn molar ratios 1:1, 2:1, 4:1; 5 days. As to the method:
Samples of α-synuclein (20 ng) incubated alone or with the compounds were mixed with 1× sample buffer (250 mM Tris-HCl, pH 6.8, 30% glycerol, 0.02% bromophenol blue) and then separated in 15% 1 mm SDS-PAGE gels. The separated proteins were transferred to 0.45 μm nitrocellulose membranes (Whatman Gmbh-Germany) at 90 V for 80 min. The membranes were boiled for 5 min in PBS and then blocked for 1 hour with 5% non-fat milk prepared in PBS-Tween-20 (0.05%; PBST). The membranes were incubated overnight at 4° C. with the primary mouse monoclonal anti-α-syn (211) antibody, which recognizes human α-synuclein (121-125) (Santa Cruz Biotechnology, USA), at a dilution of 1:1000. The membranes were then washed several times with PBST, followed by incubation with an HRP-conjugated goat anti-mouse antibody (Dako Ltd., Ely, UK) at a dilution of 1:70,000 for 60 minutes at room temperature with gentle agitation. The membranes were then extensively washed for 25 min, and immunoreactive bands were visualized with the Super Signal West Femto Chemiluminescent Substrate Kit (Pierce, Rockford, USA) according to the manufacturer's instructions.
The effect of Gn Rb1, salvianolic acid B and dihydromyricetin on α-synuclein oligomerization was assessed by immunoblot analysis. Fresh and aged solutions of α-synuclein alone or in the presence of Gn Rb1, salvianolic acid B or dihydromyricetin were analyzed. Samples were separated in 15% SDS gels, transferred onto a nitrocellulose membrane and probed with an antibody that recognizes the amino acid residues 121-125 of α-synuclein. The majority of freshly prepared α-synuclein migrated as a band at ˜16 KDa, corresponding to α-synuclein monomers (FIGS. 4A-C).
The amount of monomeric α-synuclein in the α-synuclein aged alone samples and in the presence of compounds was quantified against a fresh α-synuclein sample that contained only the monomeric species using ImageJ software.

The target in test [5] is T3, preformed α-synuclein fibrils (Homo sapiens, UniProt P37840).
T3 construct: GST (N, cleaved yes); made in house; host or cells: E. coli BL21
As to the kind of experiment: α-synuclein disaggregation assay on preformed fibrils (Th-T). The settings on record: 25 μM preformed fibrils; for effect on preformed α-synuclein fibrils (Th-T counts): ratios 6:1, 4:1, 2:1, 48 hours, 37° C. As to the method:
α-Synuclein solution in PBS (pH 7.4) was aggregated at a concentration of 25 μM as indicated above. The resulting aggregated α-synuclein was incubated either alone or with Gn Rb1 or dihydromyricetin at various molar ratios (compound: α-synuclein molar ratios of 6:1, 4:1 and 2:1). It should be noted that for the purpose of the experiment, the concentration of α-synuclein taken into account was the concentration of fresh α-synuclein. The samples were incubated at 37° C. for 48 hours on a thermomixer with continuous shaking at 800 rpm. Samples were collected at regular time points, and Th-T fluorescence was measured immediately.
Due to their high efficiency to inhibit α-synuclein fibrillation, Gn Rb1 and dihydromyricetin were assessed for their effectiveness on reversing fibrillation. 25 μM of preformed α-synuclein fibrils were incubated at 37° C. in the presence of Gn Rb1 or dihydromyricetin at varying molar ratios (compound: α-synuclein of 6:1, 4:1 and 2:1) for a period of 48 hours. By measuring the Th-T fluorescence counts (FIGS. 7A-7B), the fibril content was estimated at different time points.

Setting [6] is: after 5 days of incubation, read-out: inhibition of α-synuclein fibrillation (Th-T fluorescence).

Consider `CC(C)=CCC[C@](C)(O[C@@H]1O[C@H](CO[C@@H]2O[C@H](CO)[C@@H](O)[C@H](O)[C@H]2O)[C@@H](O)[C@H](O)[C@H]1O)[C@H]1CC[C@]2(C)[C@@H]1[C@H](O)C[C@@H]1[C@@]3(C)CC[C@H](O[C@@H]4O[C@H](CO)[C@@H](O)[C@H](O)[C@H]4O[C@@H]4O[C@H](CO)[C@@H](O)[C@H](O)[C@H]4O)C(C)(C)[C@@H]3CC[C@]12C` [Gn Rb1, ginsenoside Rb1], for which, in test [1] (2 days of incubation, 37° C., all tested concentrations), the “inhibition percentage of α-synuclein fibrillation (Th-T fluorescence)” value is recorded as “approximately 90%”. Moreover, the “reduction of α-synuclein fibrillation (Th-T fluorescence)” value in test [1] (after 5 days of incubation, all tested concentrations) was “approximately 80%”. In addition, the “absorption maximum of Congo red bound to α-synuclein samples” value in test [2] is recorded as at most 495 nm. Besides, the “TEM appearance of α-synuclein aged in the presence of compound” value (shortened to “TEM appearance of α-synuclein aged”) in test [3] is given as “thin, short rod-like fibrils, with a fragmented appearance”. For the same compound, the “effect on α-synuclein oligomerization (immunoblot, densitometry)” value (“effect on α-synuclein oligomerization” below) in test [4] is “potent inhibitor of α-synuclein oligomerization at all molar ratios”. In test [5], the “effect on preformed α-synuclein fibrils (Th-T counts)” value was “disaggregated in a dose-dependent fashion”. In addition, the “Th-T counts as fraction of the Th-T counts of the control” value in test [5] (after 4 hours of incubation, ratios 6:1, 4:1, 2:1) is “⅕”.

Turning to `O=C1c2c(O)cc(O)cc2O[C@H](c2cc(O)c(O)c(O)c2)[C@H]1O` [dihydromyricetin], in test [1] (compound 25 μM, after 5 days of incubation), the “inhibition of α-synuclein fibrillation (Th-T fluorescence)” value is reported as “failed to inhibit fibrillation”. The inhibition at 50 µM in test [1] (setting [6]) came out at 40%. Besides, in test [1] (compound 100 μM, after 5 days of incubation, read-out: inhibition of α-synuclein fibrillation (Th-T fluorescence)), the inhibition at 100 µM amounted to 80%. The “TEM appearance of α-synuclein aged” value in test [3] is on record as “thin, short rod-like fibrils, with a fragmented appearance”. Moreover, the “effect on α-synuclein oligomerization” value in test [4] is listed as “inhibited α-synuclein oligomerization in a dose-dependent fashion”. Also, the “effect on preformed α-synuclein fibrils (Th-T counts)” value in test [5] is on record as “disaggregated preformed α-synuclein fibrils in a dose-dependent fashion”.

As to `O=C(/C=C/c1ccc(O)c2c1[C@H](C(=O)O[C@H](Cc1ccc(O)c(O)c1)C(=O)O)[C@@H](c1ccc(O)c(O)c1)O2)O[C@H](Cc1ccc(O)c(O)c1)C(=O)O` [salvianolic acid B], the inhibition at 25 µM in test [1] (compound 25 μM, after 5 days of incubation, read-out: inhibition of α-synuclein fibrillation (Th-T fluorescence)) is around 35%. Moreover, the inhibition at 50 µM in test [1] (setting [6]) is around 80%. The “inhibition of α-synuclein fibrillation (Th-T fluorescence)” value in test [1] (compound 100 μM, after 5 days of incubation) is listed as “completely abolished”. Also, in test [3], the “TEM appearance of α-synuclein aged” value is reported as “thin, short rod-like fibrils, with a fragmented appearance”. The “effect on α-synuclein oligomerization” value in test [4] is “inhibited α-synuclein oligomerization in a dose-dependent fashion”.
